According to PubChem BioAssay (NCI):
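Exposure lasted 48 hours, with cells grown in 96-well plates and compounds tested at five concentrations. At the GI50, growth is halved. TGI denotes the concentration required for complete inhibition of growth.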

Columns and labels:
Experiment in all cases: NCI-60 cell line screen, 48 h
NCI-H460 lung = test system: NCI-H460 lung
ACHN renal = test system: ACHN renal
RXF 393 renal = test system: RXF 393 renal
IGROV1 ovarian = test system: IGROV1 ovarian
MDA-MB-231 breast = test system: MDA-MB-231 breast
SF-268 CNS = test system: SF-268 CNS
OVCAR-5 ovarian = test system: OVCAR-5 ovarian
M14 melanoma = test system: M14 melanoma
A549 NSCLC = test system: A549 NSCLC
COLO 205 colon = test system: COLO 205 colon
SF-295 CNS = test system: SF-295 CNS
K-562 leukemia = test system: K-562 leukemia
NCI-H23 lung = test system: NCI-H23 lung
CAKI-1 renal = test system: CAKI-1 renal
MDA-MB-468 breast = test system: MDA-MB-468 breast
A498 renal = test system: A498 renal
SW-620 colon = test system: SW-620 colon
786-0 renal = test system: 786-0 renal
PC-3 prostate = test system: PC-3 prostate
U251 CNS = test system: U251 CNS
OVCAR-8 ovarian = test system: OVCAR-8 ovarian
SNB-75 CNS = test system: SNB-75 CNS
OVCAR-4 ovarian = test system: OVCAR-4 ovarian
HOP-62 NSCLC = test system: HOP-62 NSCLC
NCI-H226 lung = test system: NCI-H226 lung
UACC-62 melanoma = test system: UACC-62 melanoma
HOP-92 NSCLC = test system: HOP-92 NSCLC
DU-145 prostate = test system: DU-145 prostate
RPMI-8226 leukemia = test system: RPMI-8226 leukemia
SK-MEL-5 melanoma = test system: SK-MEL-5 melanoma
KM12 colon = test system: KM12 colon
SK-OV-3 ovarian = test system: SK-OV-3 ovarian
LOX IMVI melanoma = test system: LOX IMVI melanoma
UO-31 renal = test system: UO-31 renal
HCT-116 colon = test system: HCT-116 colon
EKVX NSCLC = test system: EKVX NSCLC
SF-539 CNS = test system: SF-539 CNS
SK-MEL-2 melanoma = test system: SK-MEL-2 melanoma
MDA-MB-435 = test system: MDA-MB-435
HCC-2998 colon = test system: HCC-2998 colon
TK-10 renal = test system: TK-10 renal
MALME-3M melanoma = test system: MALME-3M melanoma
HCT-15 colon = test system: HCT-15 colon
SR leukemia = test system: SR leukemia
NCI/ADR-RES ovarian = test system: NCI/ADR-RES ovarian
BT-549 breast = test system: BT-549 breast
MCF7 breast = test system: MCF7 breast
HS 578T breast = test system: HS 578T breast
CCRF-CEM leukemia = test system: CCRF-CEM leukemia
MOLT-4 leukemia = test system: MOLT-4 leukemia
HT29 colon = test system: HT29 colon
SN12C renal = test system: SN12C renal
OVCAR-3 ovarian = test system: OVCAR-3 ovarian
NCI-H522 lung = test system: NCI-H522 lung
HL-60(TB) leukemia = test system: HL-60(TB) leukemia
SK-MEL-28 melanoma = test system: SK-MEL-28 melanoma
T-47D breast = test system: T-47D breast
UACC-257 melanoma = test system: UACC-257 melanoma
SNB-19 CNS = test system: SNB-19 CNS

CC(=C(c1ccc(OCCN2CCCCCC2)cc1)c1ccc(OCCN2CCCCCC2)cc1)c1ccc(Cl)cc1
GI50 (NCI-H460 lung): 1.37 µM
TGI (NCI-H460 lung): 5.14 µM
GI50 (ACHN renal): 5.9 µM
TGI (ACHN renal): 11.2 µM
GI50 (RXF 393 renal): 1.76 µM
TGI (RXF 393 renal): 7.23 µM
GI50 (IGROV1 ovarian): 5.09 µM
TGI (IGROV1 ovarian): 10.3 µM
GI50 (MDA-MB-231 breast): 4.19 µM
TGI (MDA-MB-231 breast): 8.99 µM
GI50 (SF-268 CNS): 5.44 µM
TGI (SF-268 CNS): 11.4 µM
GI50 (OVCAR-5 ovarian): 5 µM
TGI (OVCAR-5 ovarian): 10.1 µM
GI50 (M14 melanoma): 0.838 µM
TGI (M14 melanoma): 1.85 µM
GI50 (A549 NSCLC): 4.64 µM
TGI (A549 NSCLC): 12.1 µM
GI50 (COLO 205 colon): 0.813 µM
TGI (COLO 205 colon): 1.62 µM
GI50 (SF-295 CNS): 1.97 µM
TGI (SF-295 CNS): 7.2 µM
GI50 (K-562 leukemia): 0.908 µM
TGI (K-562 leukemia): 40.7 µM
GI50 (NCI-H23 lung): 5.58 µM
TGI (NCI-H23 lung): 11.1 µM
GI50 (CAKI-1 renal): 4.69 µM
TGI (CAKI-1 renal): 9.75 µM
GI50 (MDA-MB-468 breast): 1.3 µM
TGI (MDA-MB-468 breast): 6.08 µM
GI50 (A498 renal): 5.47 µM
TGI (A498 renal): 11 µM
GI50 (SW-620 colon): 0.757 µM
TGI (SW-620 colon): 1.75 µM
GI50 (786-0 renal): 3.62 µM
TGI (786-0 renal): 10.5 µM
GI50 (PC-3 prostate): 4.53 µM
TGI (PC-3 prostate): 10 µM
GI50 (U251 CNS): 5.31 µM
TGI (U251 CNS): 11.3 µM
GI50 (OVCAR-8 ovarian): 7.95 µM
TGI (OVCAR-8 ovarian): 18.5 µM
GI50 (SNB-75 CNS): 4.78 µM
TGI (SNB-75 CNS): 9.96 µM
GI50 (OVCAR-4 ovarian): 5.76 µM
TGI (OVCAR-4 ovarian): 11.7 µM
GI50 (HOP-62 NSCLC): 5.77 µM
TGI (HOP-62 NSCLC): 11.6 µM
GI50 (NCI-H226 lung): 5.96 µM
TGI (NCI-H226 lung): 12.6 µM
GI50 (UACC-62 melanoma): 1.09 µM
TGI (UACC-62 melanoma): 3.57 µM
GI50 (HOP-92 NSCLC): 2.01 µM
TGI (HOP-92 NSCLC): 8.1 µM
GI50 (DU-145 prostate): 5.19 µM
TGI (DU-145 prostate): 10.4 µM
GI50 (RPMI-8226 leukemia): 1.29 µM
TGI (RPMI-8226 leukemia): 4.7 µM
GI50 (SK-MEL-5 melanoma): 2.84 µM
TGI (SK-MEL-5 melanoma): 8.15 µM
GI50 (KM12 colon): 4.56 µM
TGI (KM12 colon): 10.1 µM
GI50 (SK-OV-3 ovarian): 6.46 µM
TGI (SK-OV-3 ovarian): 12.1 µM
GI50 (LOX IMVI melanoma): 0.776 µM
TGI (LOX IMVI melanoma): 1.61 µM
GI50 (UO-31 renal): 4.66 µM
TGI (UO-31 renal): 9.6 µM
GI50 (HCT-116 colon): 1.49 µM
TGI (HCT-116 colon): 6.22 µM
GI50 (EKVX NSCLC): 5.77 µM
TGI (EKVX NSCLC): 11.5 µM
GI50 (SF-539 CNS): 4.54 µM
TGI (SF-539 CNS): 9.49 µM
GI50 (SK-MEL-2 melanoma): 6.88 µM
TGI (SK-MEL-2 melanoma): 12.6 µM
GI50 (MDA-MB-435): 0.807 µM
TGI (MDA-MB-435): 1.9 µM
GI50 (HCC-2998 colon): 1.05 µM
TGI (HCC-2998 colon): 3.86 µM
GI50 (TK-10 renal): 6.19 µM
TGI (TK-10 renal): 11.7 µM
GI50 (MALME-3M melanoma): 0.745 µM
TGI (MALME-3M melanoma): 1.66 µM
GI50 (HCT-15 colon): 1.48 µM
TGI (HCT-15 colon): 5.7 µM
GI50 (SR leukemia): 0.963 µM
TGI (SR leukemia): 3.33 µM
GI50 (NCI/ADR-RES ovarian): 5.82 µM
TGI (NCI/ADR-RES ovarian): 11.6 µM
GI50 (BT-549 breast): 7.09 µM
TGI (BT-549 breast): 13.3 µM
GI50 (MCF7 breast): 0.654 µM
TGI (MCF7 breast): 1.77 µM
GI50 (HS 578T breast): 5.25 µM
TGI (HS 578T breast): 13.3 µM
GI50 (CCRF-CEM leukemia): 1.11 µM
TGI (CCRF-CEM leukemia): 3.88 µM
GI50 (MOLT-4 leukemia): 1.08 µM
TGI (MOLT-4 leukemia): 3.33 µM
GI50 (HT29 colon): 0.942 µM
TGI (HT29 colon): 2.55 µM
GI50 (SN12C renal): 5.38 µM
TGI (SN12C renal): 10.9 µM
GI50 (OVCAR-3 ovarian): 2.83 µM
TGI (OVCAR-3 ovarian): 8.44 µM
GI50 (NCI-H522 lung): 4.84 µM
TGI (NCI-H522 lung): 10.1 µM
GI50 (HL-60(TB) leukemia): 1.32 µM
TGI (HL-60(TB) leukemia): 9.39 µM
GI50 (SK-MEL-28 melanoma): 0.682 µM
TGI (SK-MEL-28 melanoma): 1.29 µM
GI50 (T-47D breast): 2.89 µM
TGI (T-47D breast): 9.27 µM
GI50 (UACC-257 melanoma): 1.44 µM
TGI (UACC-257 melanoma): 5.62 µM
GI50 (SNB-19 CNS): 6.06 µM
TGI (SNB-19 CNS): 11.5 µM
